Data reported in paper PMC10239758 (European journal of medicinal chemistry, 2023).
≈ marks a conversion by molar mass, not a printed value.

How the values were obtained:
Mtb KZN494 = assay: microbe, parasite or virus in culture; type: cell-based; details: Mycobacterium tuberculosis, KZN494, read-out: Mtb MIC KZN494/ MDR
Mtb TF274 = assay: microbe, parasite or virus in culture; type: cell-based; details: Mycobacterium tuberculosis, TF274, read-out: Mtb MIC TF274/ XDR
mutant Mtb strain IAR2 = type: cell-based, Mycobacterium tuberculosis

c1ccc(-c2ccc(-c3ccnc(CN4CCC5(CCCC5)CC4)c3)cc2)cc1 [Compound 62, 8-((4-([1,1'-Biphenyl]-4-yl)pyridin-2-yl)methyl)-8-azaspiro[4.5]decane]
MIC (Mtb KZN494): 0.0156 to 0.0313 µg/mL (≈ 0.0408 to 0.0818 µM) | MIC (Mtb TF274): 0.0039 µg/mL (≈ 0.0102 µM) | MIC IAR2 (mutant Mtb strain IAR2): 1 µg/mL (≈ 2.61 µM)
